Source: patent US4348264A, “Photocatalyzed process for producing carbapenams and carbapen-2-ems” (Pfizer Inc., priority 1981, dated 1982)
In brackets after ≈: the same amount, converted by molar mass.

How the values were obtained:
Type in all cases: cell-based
[1] = system: Staphylococcus aureus (Antibiotic Resistant); assay: Serial dilution-tube method, MIC; set-up: key to synergistic effect with ampicillin: Shows a synergistic effect when tested 1:1 with ampicillin; details: for MIC: Staphylococcus aureus, brain heart infusion broth, read-out: Minimum Inhibitory Concentration; for synergistic effect with ampicillin: tested 1:1 with ampicillin
[2] = system: Enterobacter cloacae; assay: Serial dilution-tube method, MIC; details: Enterobacter cloacae; brain heart infusion broth; read-out: Minimum Inhibitory Concentration
[3] = system: Proteus morgani; assay: Serial dilution-tube method, MIC; details: brain heart infusion broth; read-out: Minimum Inhibitory Concentration
[4] = system: Pseudomonas aeruginosa; assay: Serial dilution-tube method, MIC; details: Pseudomonas aeruginosa; brain heart infusion broth; read-out: Minimum Inhibitory Concentration
[5] = system: Citrobacter diversus; assay: Serial dilution-tube method, MIC; details: Citrobacter koseri; brain heart infusion broth; read-out: Minimum Inhibitory Concentration
[6] = system: Serratia marcescens; assay: Serial dilution-tube method, MIC; details: Serratia marcescens; brain heart infusion broth; read-out: Minimum Inhibitory Concentration
[7] = system: Escherichia coli (Antibiotic Resistant); assay: Serial dilution-tube method, MIC; details: Escherichia coli, brain heart infusion broth, read-out: Minimum Inhibitory Concentration
[8] = system: Bacillus subtilis; assay: Standard disc-plate method, zone of inhibition; details: Bacillus subtilis; 25 microgram discs
Excerpt: (§1) The utility of the various compounds as intermediates to other compounds of the present invention will be evident from the preceding discussion. The antibacterial activity of these compounds, reflecting their utility in the control of susceptible bacterial infections in man and animals, as animal feed additives for promotion of growth, or as preservatives of materials biodegraded by susceptible microorganisms, is best measured by the standard disc-plate method routinely employed in clinical laboratories for determining the sensitivity of microorganisms to antimicrobial substances. Sensitivity discs are prepared by dipping a standard 6.25 mm. paper disc into a solution of the compound to be tested (conc. 1 mg./ml.) in a volatile solvent (e.g. methylene chloride) and the disc dried, producing discs containing approximately 25 microg. of the compound. The discs are placed on the surface of agar growth media seeded with the test microorganism, previously plated into Petri dishes. The plates are incubated overnight at 35°-37° C. Activity of the test compound is reflected by a zone of inhibition of bacterial growth around the test disc. The diameter of this zone provides a quantitative measure of the activity of the antibacterial substance. The activity of various compounds of the present invention is summarized in Table I. For comparison, results obtained with 10 microg. discs of ampicillin and penicillin G are included as positive controls.

[9] = system: Staphylococcus aureus; assay: Standard disc-plate method, zone of inhibition; details: Staphylococcus aureus; 25 microgram discs
Excerpt: as §1

[10] = system: Micrococcus luteus; assay: Standard disc-plate method, zone of inhibition; details: Micrococcus luteus; 25 microgram discs
Excerpt: as §1

[11] = system: Staphylococcus aureus (Antibiotic Resistant); assay: Standard disc-plate method, zone of inhibition; details: Staphylococcus aureus; 25 microgram discs; antibiotic resistant
Excerpt: as §1

[12] = system: Escherichia coli; assay: Standard disc-plate method, zone of inhibition; details: Escherichia coli, 25 microgram discs
Excerpt: as §1

[13] = system: Staphylococcus aureus; assay: Serial dilution-tube method, MIC; details: Staphylococcus aureus; brain heart infusion broth; read-out: Minimum Inhibitory Concentration
[14] = system: Klebsiella pneumoniae; assay: Serial dilution-tube method, MIC; details: Klebsiella pneumoniae; brain heart infusion broth; read-out: Minimum Inhibitory Concentration
[15] = system: Escherichia coli; assay: Serial dilution-tube method, MIC; details: Escherichia coli; brain heart infusion broth; read-out: Minimum Inhibitory Concentration
[16] = system: Vibrio percolans; assay: Standard disc-plate method, zone of inhibition; details: Comamonas terrigena, 25 microgram discs
Excerpt: as §1

| SMILES | MIC [1] [µg/mL] | synergistic effect with ampicillin [1] | MIC [2] [µg/mL] | MIC [3] [µg/mL] | MIC [4] [µg/mL] | MIC [5] [µg/mL] | MIC [6] [µg/mL] | MIC [7] [µg/mL] | zone of inhibition at 25 µg/disc [8] [mm] | zone of inhibition at 25 µg/disc [9] [mm] | zone of inhibition at 25 µg/disc [10] [mm] | zone of inhibition at 25 µg/disc [11] [mm] | zone of inhibition at 25 µg/disc [12] [mm] | MIC [13] [µg/mL] | MIC [14] [µg/mL] | MIC [15] [µg/mL] | zone of inhibition at 25 µg/disc [16] [mm] |
| --- | --- | --- | --- | --- | --- | --- | --- | --- | --- | --- | --- | --- | --- | --- | --- | --- | --- |
| CC1C(O)C2C(NC(=O)COc3ccccc3)C(=O)N2C1C(=O)OCOC(=O)C(C)(C)C (stereo not drawn) [PMA H POM CH3 H OH I, Pivaloyloxymethyl 1-Hydroxy-2-methyl-6-(2-phenoxyacetamido)carbapenam-3-carboxylate] | 200 | a | > 200 | > 200 | > 200 | > 200 | > 200 | > 200 | 23 | 20 | 14 | 17 | 0 | 25 (≈ 55.7 µM) | > 200 | > 200 |  |
| CC1=C(C(=O)OCOC(=O)C(C)(C)C)N2C(=O)CC2C1=O (stereo not drawn) [H H POM CH3 O II, Pivaloyloxymethyl 2-Methyl-1-oxocarbapen-2-em-3-carboxylate] | > 200 |  | > 200 | > 200 | > 200 | > 200 | > 200 | > 200 | 37 | 22 | 26 | 18 | 0 | > 200 | > 200 | > 200 | 14 |
| CCN1CCN(C(=O)N[C@@H](C(=O)NC2C(=O)N3C(C(=O)O)C(C)C(O)C23)c2ccccc2)C(=O)C1=O (stereo partly drawn) [EPA H H CH3 H OH I, Sodium 1-Hydroxy-2-methyl-6-[2-phenyl-2-(4-ethyl-2,3-dioxopiperazine-1-carboxamido)acetamido]carbapenam-3-carboxylate] | 200 |  | 50 | 50 | > 200 | > 200 | > 200 | > 200 | 16 | 15 |  | 9 | 16 | 50 | > 200 | 100 | 25 |
| COC1(NC(=O)COc2ccccc2)C(=O)N2C(C(=O)OCOC(=O)C(C)(C)C)C(C)C(O)C21 (stereo not drawn) [PMA OMe POM CH3 H OH I, pivaloyloxymethyl 1-hydroxy-6-methoxy-2-methyl-6-(2-phenoxyacetamido)carbapenam-3-carboxylate] | > 200 |  | > 200 | > 200 | > 200 | > 200 | > 200 | > 200 | 11 | 23 |  | 0 | 0 | > 200 | > 200 | > 200 | 0 |
| Cc1onc(-c2ccccc2)c1C(=O)NC1C(=O)N2C(C(=O)OCOC(=O)C(C)(C)C)C(C)C(O)C12 (stereo not drawn) [MPI H POM CH3 H OH I, Pivaloyloxymethyl 1-Hydroxy-2-methyl-6-(5-methyl-3-phenylisoxazole-4-carboxamido)carbapenam-3-carboxylate] | 100 |  | > 200 | > 200 | > 200 | > 200 | > 200 | > 200 | 16 | 15 |  | 14 | 0 | 100 (≈ 200 µM) | > 200 | > 200 | 13 |
| CC(=O)OC1C(C)C(C(=O)OCOC(=O)C(C)(C)C)N2C(=O)C(NC(=O)COc3ccccc3)C12 (stereo not drawn) [PMA H POM CH3 H OAc I, Pivaloyloxymethyl 1-Acetoxy-2-methyl-6-(2-phenoxyacetamido)carbapenam-3-carboxylate] | > 200 |  | > 200 | > 200 | > 200 | > 200 | > 200 | > 200 | 16 | 11 | 0 | 0 | 0 | > 200 | > 200 | > 200 |  |
| COC1(NC(=O)COc2ccccc2)C(=O)N2C(C(=O)OCOC(=O)C(C)(C)C)C(C)C(=O)C21 (stereo not drawn) [PMA OMe POM CH3 O I, Pivaloyloxymethyl 6-Methoxy-2-methyl-1-oxo-6-(2-phenoxyacetamido)carbapenam-3-carboxylate] | > 200 | a | > 200 | > 200 | > 200 | > 200 | > 200 | > 200 | 11 | 0 |  | 0 | 0 | > 200 | > 200 | > 200 | 0 |
